Tests used:
Assay type in all cases: biochemical
[1] = target: T1, AOX (alternative oxidase) (Trypanosoma brucei, UniProt Q26710); assay: NADH:O2 oxidoreduction of SMPs with added purified AOX, cyanide-insensitive rate; settings: 300 or 500 nM ascofuranone, 0.1 mg AOX per mg SMP, 200 μM NADH, 400 μM NaCN (500 nM trace) or gramicidin (300 nM), pH 7.5, 32 °C
T1 construct: expressed in E. coli FN102 (hemA deficient), purified in DDM and added to membranes

[2] = target: T2, complex I (CI, NADH:ubiquinone oxidoreductase) (Bos taurus, UniProt P03887+P17694+P42026); assay: reverse electron transfer (NAD+ reduction) in bovine heart SMPs, NADH absorbance; settings: RET assay: 1 mM NAD+, 10 mM succinate, 1 mM MgATP, 50 μg/mL SMPs, pH 7.5, 32 °C, anaerobic; RET direction only, NADH oxidation not inhibited; RET also needs complex II
T2 construct: gene NDUFS2; native enzyme in coupled submitochondrial particles (inverted inner-membrane vesicles) from bovine heart mitochondria; in supercomplexes; with NADH-ubiquinone oxidoreductase 75 kDa subunit, mitochondrial; NADH dehydrogenase [ubiquinone] flavoprotein 1, mitochondrial; NADH dehydrogenase [ubiquinone] flavoprotein 2, mitochondrial; NADH dehydrogenase [ubiquinone] iron-sulfur protein 3, mitochondrial; NADH dehydrogenase [ubiquinone] iron-sulfur protein 8, mitochondrial; NADH-ubiquinone oxidoreductase chain 2; NADH-ubiquinone oxidoreductase chain 3; NADH-ubiquinone oxidoreductase chain 4; NADH-ubiquinone oxidoreductase chain 4L; NADH-ubiquinone oxidoreductase chain 5; NADH-ubiquinone oxidoreductase chain 6

[3] = target: T1, AOX (alternative oxidase); assay: NADH:O2 oxidoreduction via complex I with AOX added to SMPs or CI-only proteoliposomes; settings: quinol produced by complex I from endogenous ubiquinone or ubiquinone-10 in proteoliposomes, pH 7.5, 32 °C

T1 sequence (Q26710 25-329): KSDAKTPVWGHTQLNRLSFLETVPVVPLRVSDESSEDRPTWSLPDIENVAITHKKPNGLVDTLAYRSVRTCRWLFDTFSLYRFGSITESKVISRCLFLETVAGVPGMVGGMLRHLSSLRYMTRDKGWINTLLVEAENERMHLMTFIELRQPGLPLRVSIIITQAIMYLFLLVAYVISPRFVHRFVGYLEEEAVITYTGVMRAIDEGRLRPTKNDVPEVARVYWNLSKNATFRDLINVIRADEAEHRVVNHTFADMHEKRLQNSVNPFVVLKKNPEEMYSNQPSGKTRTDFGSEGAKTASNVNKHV
T2 sequence (P17694 34-463): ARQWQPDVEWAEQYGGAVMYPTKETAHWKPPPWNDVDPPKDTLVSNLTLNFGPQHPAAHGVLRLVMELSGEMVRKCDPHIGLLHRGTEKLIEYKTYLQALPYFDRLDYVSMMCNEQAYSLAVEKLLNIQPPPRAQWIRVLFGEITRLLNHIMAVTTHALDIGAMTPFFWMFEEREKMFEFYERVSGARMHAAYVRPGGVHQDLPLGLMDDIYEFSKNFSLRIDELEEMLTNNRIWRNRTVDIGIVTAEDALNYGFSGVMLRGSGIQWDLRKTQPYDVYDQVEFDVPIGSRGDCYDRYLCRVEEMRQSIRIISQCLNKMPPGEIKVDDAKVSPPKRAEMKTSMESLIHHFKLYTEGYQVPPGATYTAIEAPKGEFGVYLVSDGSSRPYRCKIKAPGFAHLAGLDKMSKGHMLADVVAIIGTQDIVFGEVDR
T2 sequence (P03887 whole entry): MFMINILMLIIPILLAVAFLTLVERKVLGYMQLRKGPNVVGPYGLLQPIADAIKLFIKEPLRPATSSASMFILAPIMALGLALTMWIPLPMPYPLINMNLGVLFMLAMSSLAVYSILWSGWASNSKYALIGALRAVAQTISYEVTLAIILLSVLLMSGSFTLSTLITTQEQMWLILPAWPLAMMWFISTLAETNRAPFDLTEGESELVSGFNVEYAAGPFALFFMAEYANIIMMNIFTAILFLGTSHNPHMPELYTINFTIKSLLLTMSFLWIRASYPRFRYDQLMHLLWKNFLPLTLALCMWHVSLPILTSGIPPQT
T2 sequence (P42026 38-216): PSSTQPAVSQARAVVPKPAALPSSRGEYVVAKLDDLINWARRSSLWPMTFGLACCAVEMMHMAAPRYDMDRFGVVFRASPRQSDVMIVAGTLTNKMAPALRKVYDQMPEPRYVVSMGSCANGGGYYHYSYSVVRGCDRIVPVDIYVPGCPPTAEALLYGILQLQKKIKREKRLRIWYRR
T2 sequence (P25708 21-464 partner): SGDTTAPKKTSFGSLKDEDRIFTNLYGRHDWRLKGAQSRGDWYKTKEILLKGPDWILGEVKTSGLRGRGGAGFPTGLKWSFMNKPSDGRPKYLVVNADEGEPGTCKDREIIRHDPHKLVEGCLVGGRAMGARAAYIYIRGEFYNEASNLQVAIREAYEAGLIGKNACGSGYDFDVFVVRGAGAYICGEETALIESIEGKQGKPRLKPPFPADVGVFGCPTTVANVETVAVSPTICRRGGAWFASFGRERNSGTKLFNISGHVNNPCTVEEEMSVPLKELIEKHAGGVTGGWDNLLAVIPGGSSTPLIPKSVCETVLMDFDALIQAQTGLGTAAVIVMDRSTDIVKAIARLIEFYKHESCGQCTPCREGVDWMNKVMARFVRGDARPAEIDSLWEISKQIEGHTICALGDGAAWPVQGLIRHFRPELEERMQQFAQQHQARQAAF
T2 sequence (P15690 24-727 partner): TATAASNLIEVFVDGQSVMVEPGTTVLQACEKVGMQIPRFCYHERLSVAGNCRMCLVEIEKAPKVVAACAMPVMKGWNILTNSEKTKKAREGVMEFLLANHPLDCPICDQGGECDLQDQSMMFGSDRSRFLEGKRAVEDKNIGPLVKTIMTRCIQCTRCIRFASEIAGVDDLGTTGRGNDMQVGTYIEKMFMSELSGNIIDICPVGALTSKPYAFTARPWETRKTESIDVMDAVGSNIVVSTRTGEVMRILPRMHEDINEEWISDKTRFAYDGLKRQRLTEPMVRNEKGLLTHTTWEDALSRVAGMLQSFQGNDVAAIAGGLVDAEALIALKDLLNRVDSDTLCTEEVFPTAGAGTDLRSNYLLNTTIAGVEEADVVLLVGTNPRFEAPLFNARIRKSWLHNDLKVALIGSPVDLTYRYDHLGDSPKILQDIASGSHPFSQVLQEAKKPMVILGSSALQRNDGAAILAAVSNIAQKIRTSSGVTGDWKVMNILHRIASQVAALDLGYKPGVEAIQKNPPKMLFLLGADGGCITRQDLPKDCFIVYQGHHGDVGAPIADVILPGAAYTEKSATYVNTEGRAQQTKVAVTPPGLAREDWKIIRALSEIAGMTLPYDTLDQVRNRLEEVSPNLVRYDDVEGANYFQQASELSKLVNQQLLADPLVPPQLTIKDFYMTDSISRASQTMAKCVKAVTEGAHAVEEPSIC

## C/C(=C\Cc1c(O)c(Cl)c(C)c(C=O)c1O)CC/C=C(\C)[C@@H]1CC(=O)C(C)(C)O1 [ascofuranone]
[1]
  NADH:O2 oxidoreduction of SMPs with added purified AOX, cyanide-insensitive rate: AOX-catalyzed quinol oxidation is insensitive to cyanide
[2]
  IC50: 440 ± 40 nM

## COc1c(O)c(C)c(C/C=C(\C)CC/C=C(\C)CC/C=C(\C)CC/C=C(\C)CC/C=C(\C)CC/C=C(\C)CC/C=C(\C)CC/C=C(\C)CC/C=C(\C)CCC=C(C)C)c(O)c1OC [quinol]
[3]
  NADH:O2 oxidoreduction via complex I with AOX added to SMPs or CI-only proteolip: also observed in synthetic, CI-only proteoliposomes containing ubiquinone-10
